# Experimental data as given in patent US9044485B2, “Ceftolozane antibiotic compositions” (priority 2013, dated 2015).
# Experiments:
# P. aeruginosa = assay: Minimum inhibitory concentration (MIC90); type: cell-based; details: Pseudomonas aeruginosa
# [1] = Intrinsic pH of ceftolozane in solution; type: physicochemical; details: in solution (2%)
# Enterobacteriaceae = assay: In vitro activity against Gram-positive and Gram-negative bacteria (surveillance data); type: cell-based; details: against Acinetobacter spp. and common species of Enterobacteriaceae
# Method: The in vitro activity of ceftolozane and ceftolozane/tazobactam was evaluated against a broad range of Gram-positive and Gram-negative bacteria.
smiles,measurement,setting,value
"Cn1c(N)c(NC(=O)NCCN)c[n+]1CC1=C(C(=O)O)N2C(=O)[C@@H](NC(=O)/C(=N\OC(C)(C)C(=O)O)c3nsc(N)n3)[C@H]2SC1 [ceftolozane, (6R,7R)-3-[(5-amino-4-{[(2-aminoethyl)carbamoyl]amino}-1-methyl-1H-pyrazol-2-ium-2-yl)methyl]-7-({(2Z)-2-(5-amino-1,2,4-thiadiazol-3-yl)-2-[(1-carboxy-1-methylethoxy)imino]acetyl}amino)-8-oxo-5-thia-1-azabicyclo[4.2.0]oct-2-ene-2-carboxylate]",MIC90,P. aeruginosa,≤ 2 µg/mL
same,intrinsic pH,[1],1.92
"C[C@]1(Cn2ccnn2)[C@H](C(=O)O)N2C(=O)C[C@H]2S1(=O)=O [tazobactam, (2S,3S,5R)-3-methyl-7-oxo-3-(1H-1,2,3-triazol-1-ylmethyl)-4-thia-1-azabicyclo[3.2.0]heptane-2-carboxylic acid 4,4-dioxide]",effect on in vitro activity of ceftolozane (in words),Enterobacteriaceae,potentiated the activity of ceftolozane
